Assay results: patent publication US20230174608A1, “Polypeptide Derivative Having Dual Receptor Agonistic Action and Use Thereof” (TIANJIN INSTITUTE OF PHARMACEUTICAL RESEARCH CO., LTD., priority 2020, published 2023)
Marks after values point to notes of the source that are not given here. Where a SMILES comes first, the peptide text is derived from it.

What was measured:
GLP-1R = molecular target: T1, GLP-1R (Homo sapiens, UniProt P43220); test: GLP-1 receptor-mediated cAMP production in vitro; type: cell-based; conditions: HEK293 cell line stably expressing GLP-1R
T1 construct: expressed in transfected cells
T1 sequence (P43220 24-463, species assumed): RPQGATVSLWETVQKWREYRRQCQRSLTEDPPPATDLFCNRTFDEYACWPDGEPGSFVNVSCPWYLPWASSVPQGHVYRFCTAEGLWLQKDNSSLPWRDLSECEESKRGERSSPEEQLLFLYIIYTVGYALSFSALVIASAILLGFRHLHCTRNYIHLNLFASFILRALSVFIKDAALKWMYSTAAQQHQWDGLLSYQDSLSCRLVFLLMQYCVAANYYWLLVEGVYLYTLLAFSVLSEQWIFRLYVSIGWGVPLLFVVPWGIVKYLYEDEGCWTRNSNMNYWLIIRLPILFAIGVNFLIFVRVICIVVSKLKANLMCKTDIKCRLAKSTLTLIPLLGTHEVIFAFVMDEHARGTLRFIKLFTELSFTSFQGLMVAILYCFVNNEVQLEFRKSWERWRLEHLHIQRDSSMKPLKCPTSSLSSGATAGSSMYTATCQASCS
In short: (§1)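 HEK293 cells stably expressing human GLP-1R or GCGR are stimulated with compound for 30 min in the dark in serum-free medium with 0.5 mM IBMX, with test dilutions spanning 1 μM down to 10^−3 nM. cAMP is detected after a 60 min room-temperature reaction as the 665/615 nm ratio.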

[1] = test system: glucose loaded normal mice; test: Glucose loading test on normal mice after single administration; type: in vivo, Kunming mice; conditions: for Blood glucose reduction rate (%) / Blood glucose level after glucose loading / Inhibition of the rise of blood glucose after glucose loading (in words): 30 nmol/kg single dose; for Blood glucose reduction rate (%): after glucose loading, versus model control group; for Blood glucose level after glucose loading: glucose 2.5 g/kg intragastric 60 min after administration, measured 30 min after loading; for Blood glucose level after glucose loading / Fasting blood glucose level: n=5; for Inhibition of the rise of blood glucose after glucose loading (in words): normal mice; for Fasting blood glucose level: normal mice fasted 6 h, 30 nmol/kg group
Protocol: The hypoglycemic action of each compound of Example 1 was assessed by a glucose loading test on normal mice after single administration.
Method: Kunming mice (male, with a weight of 20-22 g) were acclimated in a barrier environment animal room for 3 days, divided into a blank control group, a model control group, a positive control group, and test compound groups, 5 mice in each group, and fasted for 6 h. Saline was administered to each mouse in the blank control group and the model control group, the compounds and a positive control drug were respectively administered to each mouse in the test compound groups and the positive control group at a dose of 30 nmol/kg, and the positive control drug was semaglutide. 60 min after administration, glucose was intragastrically administered to each mouse in the model control group, the positive control group, and the test compound groups at a dose of 2.5 g/kg (0.01 mL·g^−1 weight), distilled water was administered to each mouse in the blank control group, and blood glucose levels were determined 30 min after glucose loading.

[2] = test system: diet-induced obesity (DIO) mice; test: Obese (DIO) model mice, 23 days of successive administration; type: in vivo, C57BL/6J Gpt mice; conditions: for Fasting blood glucose (mmol/L) before the last administration: fasted 16 h; for Fasting blood glucose (mmol/L) before the last administration / TC (total cholesterol) / TG (triglycerides): n=5; for Weight decreasing rate: 30 nmol/kg s.c. every day, without fasting before the last administration compared to day 1; for Examination of liver pathological section: HE stain, 2 animals; for TC (total cholesterol) / TG (triglycerides): after 23 days of administration
Description: C57BL/6J Gpt mice (purchased from GemPharmatech (Jiangsu) Co., Ltd.) (6-8-week-old) were fed with H10060 high-fat diet (purchased from Beijing HFK Bioscience Co., Ltd.) to obtain diet-induced obesity (DIO) models, mice in a blank control group (n=5) were fed with standard diets, and all the mice were fed for 11 weeks after being purchased. One day before the first administration, the mice in the model group were randomly divided into 5 groups according to their weights (within a range of 39.5-49.5 g), i.e., a model control group, a positive control group, and test compound groups (dgc005, dgc016, and dgc020), respectively, 5 mice in each group, which were administered every day by subcutaneous injection. Saline was subcutaneously injected in the blank control group and the model control group every day. The administration was performed for 23 days. The positive control drug and the test compounds were administered at a dose of 30 nmol/kg, and the administration volume for each group was 0.005 mL/g weight. The mice were weighed before each administration, and 72-h food intake was weighed every three days. The mice fasted for 16 h before the last administration, fasting blood glucose levels were determined, blood was sampled from the orbital venous plexus to determine triglycerides and total cholesterol, and the liver was taken out for pathological section observation.
The liver of each C576L/6 mouse in the groups was fixed with 12% formaldehyde and prepared into a specimen, and the tissue block was repaired, dehydrated with graded alcohol, embedded in paraffin, stained with HE, and examined under a light microscope.

[3] = test system: diet-induced obesity (DIO) mice; test: DIO mice, weight and blood glucose after multiple administrations at different doses; type: in vivo, C57BL/6N mice; conditions: for Fasting blood glucose (mmol/L) before the last administration / Blood glucose level (mmol/L) 0.5 h after glucose loading / Glycemic load reduction rate: Day 22; for Fasting blood glucose (mmol/L) before the last administration: fasted 16 h; for Blood glucose level (mmol/L) 0.5 h after glucose loading: glucose 1 g/kg intragastric 30 min after administration; for Glycemic load reduction rate: versus model control group; for Reduction rate of weight without fasting on day 21 compared to day 0: n=5
Description: 40 C57BL/6N mice were purchased from Beijing Vital River Laboratory Animal Technology Co., Ltd. Mice in a model group (n=35) were fed with H10060 high-fat diets to obtain diet-induced obesity (DIO) models, mice in a blank control group (n=5) were fed with standard diets, and all the mice were fed for 36 weeks. On the day of the first administration, the mice in the model group were randomly divided into 7 groups according to their weights (within a range of 45-60 g), i.e., a model control group, positive control groups (semaglutide at doses of 10 nmol/kg and 30 nmol/kg, respectively), and test compound groups (dgc005 and dgc016 at doses of 10 nmol/kg and 30 nmol/kg, respectively), 5 mice in each group. The positive control drug and the test compounds were respectively subcutaneously injected into each mouse in the positive control groups and the test compound groups every day, saline was subcutaneously injected into each mouse in the blank control group and the model control group, and the administration was performed for 22 days (the administration volume for each group was 0.005 mL/g weight). The mice were weighed before each administration, and 72-h food intake was weighed every three days. The mice fasted for 16 h before the last administration, and 30 min after administration, a glucose solution (1 g/kg, the administration volume was 0.01 mL/g weight) was intragastrically administered to each mouse for glucose tolerance test. Blood glucose levels were determined 0.5 h after glucose loading.

GCGR = molecular target: T2, GCGR (Homo sapiens, UniProt P47871); test: GC receptor-mediated cAMP production in vitro; type: cell-based; conditions: HEK293 cell line stably expressing GCGR
T2 construct: expressed in transfected cells
T2 sequence (P47871 26-477, species assumed): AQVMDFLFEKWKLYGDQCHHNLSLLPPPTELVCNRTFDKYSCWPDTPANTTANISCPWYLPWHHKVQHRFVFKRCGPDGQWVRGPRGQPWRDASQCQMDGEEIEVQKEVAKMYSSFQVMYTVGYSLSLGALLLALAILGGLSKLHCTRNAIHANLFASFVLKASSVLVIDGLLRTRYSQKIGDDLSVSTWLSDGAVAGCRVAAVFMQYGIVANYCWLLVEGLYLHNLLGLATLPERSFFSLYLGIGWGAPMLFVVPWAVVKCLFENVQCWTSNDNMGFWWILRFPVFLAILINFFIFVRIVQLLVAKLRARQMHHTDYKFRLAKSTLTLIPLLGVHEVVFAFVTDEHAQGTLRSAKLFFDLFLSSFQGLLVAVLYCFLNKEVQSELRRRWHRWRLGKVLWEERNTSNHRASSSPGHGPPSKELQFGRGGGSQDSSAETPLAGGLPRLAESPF
In short: as §1

[4] = day 4 of administration, 30 nmol/kg s.c. daily
[5] = day 7 of administration, 30 nmol/kg s.c. daily
[6] = day 10 of administration, 30 nmol/kg s.c. daily
[7] = day 13 of administration, 30 nmol/kg s.c. daily

EC50 (GLP-1R)	Structure (SMILES)	Blood glucose reduction rate (%) [1]	Blood glucose level after glucose loading [1]	Inhibition of the rise of blood glucose after glucose loading (in words) [1]	Fasting blood glucose level [1]	Fasting blood glucose (mmol/L) before the last administration ([2]; 30 nmol/kg s.c. daily, 23 days)	Weight decreasing rate [2]	Effect on triglycerides (in words) ([2]; 23 days, 30 nmol/kg s.c. daily)	Examination of liver pathological section ([2]; 23 days, 30 nmol/kg s.c. daily)	TC (total cholesterol) ([2]; 30 nmol/kg s.c. daily)	TG (triglycerides) ([2]; 30 nmol/kg s.c. daily)	72-h food intake [2, 4]	72-h food intake [2, 5]	72-h food intake [2, 6]	72-h food intake [2, 7]	Fasting blood glucose (mmol/L) before the last administration ([3]; 10 nmol/kg s.c. daily)	Blood glucose level (mmol/L) 0.5 h after glucose loading ([3]; 10 nmol/kg s.c. daily)	Glycemic load reduction rate ([3]; 10 nmol/kg s.c. daily)	Reduction rate of weight without fasting on day 21 compared to day 0 ([3]; 10 nmol/kg s.c. every day)	Fasting blood glucose (mmol/L) before the last administration ([3]; 30 nmol/kg s.c. daily)	also measured
1.23 nM	CCCCCCCCCCCCCCCC(=O)N[C@@H](CCC(=O)N[C@@H](CCC(=O)NCCCC[C@H](NC(=O)[C@H](C)NC(=O)[C@H](C)NC(=O)[C@H](CCCNC(=N)N)NC(=O)[C@H](CCC(=O)O)NC(=O)[C@H](CCC(=O)O)NC(=O)[C@H](CC(C)C)NC(=O)[C@H](Cc1ccc(O)cc1)NC(=O)[C@H](CCCCN)NC(=O)[C@H](CO)NC(=O)[C@H](Cc1ccc(O)cc1)NC(=O)[C@H](CC(=O)O)NC(=O)[C@H](CO)NC(=O)[C@@H](NC(=O)[C@H](Cc1ccccc1)NC(=O)[C@@H](NC(=O)CNC(=O)[C@H](CCC(N)=O)NC(=O)C(C)(C)NC(=O)[C@@H](N)Cc1c[nH]cn1)[C@@H](C)O)[C@@H](C)O)C(=O)N[C@@H](CCC(=O)O)C(=O)N[C@@H](Cc1ccccc1)C(=O)N[C@H](C(=O)N[C@@H](C)C(=O)N[C@@H](Cc1c[nH]c2ccccc12)C(=O)N[C@@H](CC(C)C)C(=O)N[C@@H](CCC(=O)O)C(=O)NCC(=O)NCC(N)=O)[C@@H](C)CC)C(=O)O)C(=O)O [dgc016] (HELM PEPTIDE1{H.[Aib].Q.G.T.F.T.S.D.Y.S.K.Y.L.E.E.R.A.A.K.E.F.I.A.W.L.E.G.G.[am]}|PEPTIDE2{[CCCCCCCCCCCCCCCC(=O)[*:2]].[gGlu].[gGlu]}$PEPTIDE1,PEPTIDE2,20:R3-3:R2$$$V2.0; N-terminus assumed)	59.88%	6.82 ± 1.78**^ mmol/L	equivalent to that of the positive control drug	3.66 ± 0.77 mmol/L	4.18 ± 0.40 mmol/L	29.3%	has a triglyceride reduction action	no obvious pathological changes are seen in portal areas and interstitium	3.32 ± 0.73 ^ mmol/L	0.75 ± 0.10**^ΔΔ mmol/L	3.30 g/mouse	4.80 g/mouse	6.10 g/mouse	5.70 g/mouse	4.68 ± 2.12 mmol/L	7.12 ± 0.61**^Δ mmol/L	32.32	17.56%	5.02 ± 2.34 mmol/L	Blood glucose level (mmol/L) 0.5 h after glucose loading ([3]; 30 nmol/kg s.c. daily): 7.48 ± 0.78 mmol/L; Glycemic load reduction rate ([3]; 30 nmol/kg s.c. daily): 28.90; Reduction rate of weight without fasting on day 21 compared to day 0 ([3]; 30 nmol/kg s.c. every day): 19.92%; EC50 (GCGR): 0.342 nM
0.484 nM	CCCCCCCCCCCCCCCC(=O)N[C@@H](CCC(=O)N[C@@H](CCC(=O)NCCCC[C@H](NC(=O)[C@H](C)NC(=O)[C@H](C)NC(=O)[C@H](CCCNC(=N)N)NC(=O)[C@H](CCC(=O)O)NC(=O)[C@H](CCC(=O)O)NC(=O)[C@H](CC(C)C)NC(=O)[C@H](Cc1ccc(O)cc1)NC(=O)[C@H](CCCCN)NC(=O)[C@H](CO)NC(=O)[C@H](Cc1ccc(O)cc1)NC(=O)[C@H](CC(=O)O)NC(=O)[C@H](CO)NC(=O)[C@@H](NC(=O)[C@H](Cc1ccccc1)NC(=O)[C@@H](NC(=O)CNC(=O)[C@H](CCC(N)=O)NC(=O)C(C)(C)NC(=O)[C@@H](N)Cc1c[nH]cn1)[C@@H](C)O)[C@@H](C)O)C(=O)N[C@@H](CCC(=O)O)C(=O)N[C@@H](Cc1ccccc1)C(=O)N[C@H](C(=O)N[C@@H](C)C(=O)N[C@@H](Cc1c[nH]c2ccccc12)C(=O)N[C@@H](CC(C)C)C(=O)N[C@@H](CCC(=O)O)C(=O)N[C@@H](C)C(=O)NCC(=O)NCC(N)=O)[C@@H](C)CC)C(=O)O)C(=O)O [dgc005] (HELM PEPTIDE1{H.[Aib].Q.G.T.F.T.S.D.Y.S.K.Y.L.E.E.R.A.A.K.E.F.I.A.W.L.E.A.G.G.[am]}|PEPTIDE2{[CCCCCCCCCCCCCCCC(=O)[*:2]].[gGlu].[gGlu]}$PEPTIDE1,PEPTIDE2,20:R3-3:R2$$$V2.0; N-terminus assumed)	60.59%	6.70 ± 1.88**^ mmol/L	equivalent to that of the positive control drug	3.96 ± 0.62 mmol/L	4.60 ± 0.34 mmol/L	27%	significantly reduce triglycerides (TGs)	no obvious pathological changes are seen in portal areas and interstitium	3.07 ± 0.50 mmol/L	0.58 ± 0.10**^#ΔΔ mmol/L	2.50 g/mouse	3.80 g/mouse	4.20 g/mouse	4.60 g/mouse	5.34 ± 1.20 mmol/L	7.52 ± 0.77 mmol/L	28.52	18.41%	4.22 ± 2.13 mmol/L	Effect on total cholesterol (in words) ([2]; 23 days, 30 nmol/kg s.c. daily): reduced total cholesterol (TC) in a certain extent; Blood glucose level (mmol/L) 0.5 h after glucose loading ([3]; 30 nmol/kg s.c. daily): 7.82 ± 1.09 mmol/L; Glycemic load reduction rate ([3]; 30 nmol/kg s.c. daily): 25.66; Reduction rate of weight without fasting on day 21 compared to day 0 ([3]; 30 nmol/kg s.c. every day): 21.39%; EC50 (GCGR): 1.16 nM
